Calls of active or inactive are those of the source.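 How the source made its calls: active means compounds giving half or more protection of infected cells from virus-caused growth loss, again on retest; inactive means the rest.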
Test system: CEM cells HIV-1 protection, formazan growth assay
Experiment: NCI AIDS Antiviral Assay
Settings: for IC50: measured here: growth of uninfected CEM cells
Outline: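 Five concentrations of each compound were applied to infected and uninfected human CEM cells. Protection from HIV-1 was judged from growth measured with a soluble formazan assay.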

Structure (SMILES)	EC50	IC50	outcome
CCOC(=O)C(C(=O)OCC)C1c2ccccc2-c2ccccc21	> 200 µM	77.6 µM	
C=CC1(C)CN(Cc2ccccc2)C(C(=O)OCC)O1 (stereo not drawn)	> 26.3 µM	> 26.3 µM	
C/C(=N\NC(N)=O)C(CN1CCOCC1)C(c1ccccc1)c1c(O)c2ccccc2oc1=O (stereo not drawn)	> 81.3 µM	67.6 µM	
CC(=O)OC1SC(c2c(F)cccc2F)n2c1nc1ccccc12 (stereo not drawn)	38 µM	126 µM	
Cc1nc(-c2cc3cc([N+](=O)[O-])ccc3oc2=O)cs1	> 200 µM	74.1 µM	
CCNC(CCCC(NCC)P(=O)(O)O)P(=O)(O)O (stereo not drawn)			inactive
CCOP(=O)(OCC)/C(C#N)=C/c1ccccc1O	> 891 µM	> 891 µM	
CS(=O)(=O)OC[C@@H]1OCO[C@H]1COS(C)(=O)=O	> 200 µM	> 200 µM	
Cc1ccc(S(=O)(=O)SSSSS(=O)(=O)c2ccc(C)cc2)cc1	> 30.9 µM	> 30.9 µM	
O=c1c2ccccc2nnn1N1CCOCC1	> 81.3 µM	> 81.3 µM	
C1CCC(OC2CSC2)OC1 (stereo not drawn)	> 389 µM	> 389 µM	
COc1cc(OCc2nc3cc(C(F)(F)F)ccc3nc2-c2ccccc2)cc(OC)c1OC	> 200 µM	89.1 µM	
O=Nc1ccc(O)cc1	> 20 µM	3.89 µM	
O=P(O)(O)Cc1c(Cl)c(Cl)c(CP(=O)(O)O)c(Cl)c1Cl	> 200 µM	> 200 µM	
CS(=O)(=O)C(CC(S(C)(=O)=O)S(C)(=O)=O)S(C)(=O)=O	> 20.4 µM	> 20.4 µM	
N#Cc1ccccc1C(Cl)(Cl)c1cnccn1	> 490 µM	64.6 µM	
CCOC(=O)c1c(C(CC)C(=O)OC(C)C)cc2n(c1=O)Cc1c-2nc2ccccc2c1Cl (stereo not drawn)	> 10 µM	> 10 µM	
CCN(CC)C(=Nc1ccc(Cl)c(Cl)c1)SC(NC=O)=C(Cl)Cl	> 200 µM	19.5 µM	
NC1=N[C@H]2CS[C@@H](CCCCC(=O)ON3C(=O)CCC3=O)[C@H]2N1	> 589 µM	> 589 µM	
Cc1ccc2c(c1)C=CC1(O2)N(c2ccccc2)C(=S)OC1(C)C (stereo not drawn)	> 200 µM	22.4 µM	
COC(=O)NNC(c1ccc(Cl)cc1)c1ccc(Cl)cc1	> 200 µM	30.9 µM	
CCCNC(=O)c1ccccc1C(=O)C(Cl)c1ccccc1 (stereo not drawn)	> 214 µM	> 214 µM	
CCCCOC(=O)C(=O)/C(=C/N1C(=O)/C(=C/C(C)=C/c2ccccc2)SC1=S)C(=O)C=C(C)C	> 100 µM	14.8 µM	

Structure (SMILES)	EC50	IC50	outcome
Nc1nc(Cl)cc(NCC2(O)CCCC2)n1	> 200 µM	166 µM	
CN1C(=O)c2cnc3ccccc3c2C1(O)c1ccccc1 (stereo not drawn)	> 200 µM	> 200 µM	
CC(=O)Oc1cc2c(cc1OC(C)=O)[C@H]1CC[C@]3(C)[C@@H](OC(C)=O)CC[C@H]3[C@@H]1CC2	> 200 µM	10 µM	
COc1ccc(N[C@H]([C@@H](c2ccccc2)S(=O)c2ccc(C)cc2)C(F)(F)F)cc1 (stereo partly drawn)	> 200 µM	34.7 µM	
O=c1cc2n(c(=O)[nH]1)C1OC(C(O)C1O)[C@@H]2CCO (stereo partly drawn)			inactive
Cn1c(=O)c2c(n(C)c1=O)n1c(SCc3ccccc3)nnc1n2C	> 200 µM	182 µM	
CCOP(=O)(OCC)C(N)C(C)CC (stereo not drawn)	> 479 µM	> 479 µM	
COc1c(O)c2c(=O)cc3c4c5c(cc(=O)c6c(O)c(OC)c(CC(C)O)c(c(c1CC(C)O)c24)c65)OCO3 (stereo not drawn)	> 24 µM	0.832 µM	
CCCCCCc1cc2c(C)c(C)c(=O)oc2cc1OCCCOc1cc2oc(=O)c(C)c(C)c2cc1CCCCCC	> 22.9 µM	> 22.9 µM	
O=C(Oc1cc(=O)c(OC(=O)c2ccccc2)co1)c1ccccc1	> 200 µM	110 µM	
C=CCOC(=O)C1(C)C(=O)CCC1CC/C=C/C(C)=O (stereo not drawn)	> 129 µM	6.03 µM	
Cc1nc2c(s/c(=N\N)n2-c2ccccc2)c(=O)[nH]1	> 36.3 µM	> 36.3 µM	
O=C1/C(=C\c2ccccn2)c2ccccc2N1Cc1ccccc1	> 22.9 µM	12.6 µM	
CCC[N+]12CC=C(CO)C1C(O)CC2 (stereo not drawn)	> 891 µM	> 891 µM	
CCCCCCCCCCCCOP(=O)(O)OP(=O)(O)OCC1OC(n2ccc(N)nc2=O)CC1O (stereo not drawn)	57.5 µM	> 100 µM	
Cc1cc(C)c(C(=O)O)c(N)c1O			inactive
Cc1ccnc(NC(=O)Nc2cc(F)ccc2F)c1	> 200 µM	> 200 µM	
CCC[CH2][Sn]([CH2]CCC)([CH2]CCC)[CH2]N1CCC(=O)C[C@@H]1C/C=C/[P@]1(=O)O[C@H](c2ccccc2)C(C)N1C(C)C (stereo partly drawn)			inactive
CC(C)(C)C1=NO[C@H]2[C@@H](NC(=O)c3ccccc3)CC[C@@H]12	> 871 µM	302 µM	
O=C(CN1CCN(Cc2ccccc2)CC1)c1ccc2[nH]c(=O)oc2c1	> 200 µM	158 µM	
CN(CC1=C(O)C(=O)C(CN(C)Cc2c(O)ccc3ccccc23)=C(O)C1=O)Cc1c(O)ccc2ccccc12	> 17.4 µM	> 17.4 µM	
Cc1ccc2cc(NC(=O)CBr)c3ccc(C)nc3c2n1	> 2 µM	0.955 µM	
N.N.N.N.N.O=C([O-])CCl.[Co+3].[O-][Cl+3]([O-])([O-])[O-]			inactive

Structure (SMILES)	EC50	IC50	outcome
N#CC(/C=C/c1ccccc1)Nc1ccccc1N (stereo not drawn)	> 28.8 µM	> 28.8 µM	
CN1CCCC(CNC2C3CC4CC(C3)CC2C4)C1 (stereo not drawn)	> 138 µM	> 138 µM	
COc1ccc(CN2CC(C)N(N=Cc3c4c(O)c5c(O)c(C)c6c(c5c3O)C(=O)C(C)(O/C=C/C(OC)C(C)C(OC(C)=O)C(C)C(O)C(C)C(O)C(C)/C=C/C=C(\C)C(=O)N4)O6)C(C)C2)cc1 (stereo not drawn)	> 200 µM	9.12 µM	
C=CN1CCCC1=O			inactive
O=S1(=O)C(c2ccc(F)cc2)=C(O)c2cc3ccccc3nc21			inactive
S=C1c2ccc(Cl)cc2-n2cnnc2C2CSCN12 (stereo not drawn)	> 200 µM	> 200 µM	
Oc1ccccc1-c1nn2c(CCCCCCCCc3nnc4sc(-c5ccccc5O)nn34)nnc2s1	> 200 µM	12 µM	
NC(=O)CCNC(=O)c1ccc(NC(=O)c2ccccc2SC(=O)CCCC[n+]2ccccc2)cc1	18.6 µM	45.7 µM	
O=[N+]([O-])c1ccc(-c2csc(=[N+]3CCCCC3)s2)cc1			inactive
C=C(C)[C@@H]1CC[C@]2(C(=O)O)CC[C@]3(C)[C@H](CC[C@@H]4[C@@]5(C)CC[C@H](C(=O)/C=C/c6ccc(O)cc6)C(C)(C)[C@@H]5CC[C@]43C)[C@@H]12	> 200 µM	2.34 µM	
N/C(=N\N=C\c1cc(I)cc(I)c1O)NO	> 200 µM	10.5 µM	
CC1NCCc2c1[nH]c1cc(O)ccc21 (stereo not drawn)	> 1050 µM	158 µM	
O=S(=O)(O/C1=C/CCCCCC1)C(F)(F)F	> 100 µM	> 100 µM	
COC(OC)c1cccc2c1C1(O)CCC3(CC21)OCCCCO3 (stereo not drawn)	> 200 µM	> 200 µM	
Cc1ccc(C2CC(c3ccc([N+](=O)[O-])cc3)=Nc3ccccc3S2)cc1 (stereo not drawn)	> 13.8 µM	7.76 µM	
CN(C)C(=S)/N=c1\ssc(=S)n1-c1ccccc1			inactive
CC(=O)Nc1ccc(/C=N/Nc2nnc(N/N=C/c3ccc(NC(C)=O)cc3)c3ccccc23)cc1	> 200 µM	7.59 µM	
CC(=O)OCCOCN1C(=O)NC(=O)/C(=C/c2cccc(OCc3ccccc3)c2)C1=O	> 200 µM	18.2 µM	
CCOP(=O)(OCC)OC1C=CC2CCC1C2 (stereo not drawn)	> 191 µM	> 191 µM	
Cc1ccc(-c2csc(=Nc3ccccc3)n2NC(=O)c2ccncc2)cc1	> 200 µM	22.9 µM	
CCN1c2ccccc2-c2c3c1cc(C)cc3c1ccccc1[n+]2CC			inactive
C/C([O-])=c1\c(C)nn2ccc[n+]12	> 309 µM	> 309 µM	
O=C1/C(=C\c2cccc(Oc3ccccc3)c2)S(=O)(=O)C(c2ccccc2)N1c1cccc(Cl)c1 (stereo not drawn)	> 200 µM	12.9 µM	

Structure (SMILES)	EC50	IC50	outcome
O=C1c2cccc3cc([N+](=O)[O-])cc(c23)C(=O)N1C(Cc1ccccc1)c1ccccc1 (stereo not drawn)	> 200 µM	105 µM	
Cc1ccc(S(=O)(=O)SC(C)(C)C)cc1	> 29.5 µM	9.33 µM	
CCN(CC)c1ccc(C(=O)c2ccccc2C(=O)O)c(O)c1			inactive
COc1ccc(NC(=O)CC(=O)n2nc(-c3ccccc3)c(N=Nc3ccc(C)cc3)c2-c2ccccc2)cc1	> 9.77 µM	> 9.77 µM	
CC(C)CCC[C@@H](C)C1CCC2[C@@H]3CCC4CC(=C(c5cc(Cl)c(O)c(C(=O)O)c5)c5cc(Cl)c(O)c(C(=O)O)c5)CC[C@]4(C)C3CC[C@@]21C (stereo partly drawn)	47.9 µM	148 µM	
NC(=O)C(NC=O)c1ccccc1 (stereo not drawn)	> 200 µM	> 200 µM	
C/C(CCN(C)C)=N\OC(=O)c1ccccc1	> 200 µM	> 200 µM	
O=C([O][Bi]([c]1ccccc1)[c]1ccccc1)c1ccccc1	> 38.9 µM	> 38.9 µM	
CN1C(=O)CC(Sc2ccccc2)c2ccccc21 (stereo not drawn)	> 200 µM	36.3 µM	
CCCCCCCCCCCCP(=O)(O)OCC(N)C(=O)O (stereo not drawn)	> 200 µM	83.2 µM	
CC(=O)N1N=C(c2c(O)ccc3ccccc23)CC1C(=O)c1ccco1 (stereo not drawn)	> 200 µM	35.5 µM	
O=S1(c2ccccc2)=NC(=S)Nc2ccccc21 (stereo not drawn)	17.4 µM	> 200 µM	
N#C/C=C/c1ccc2ccccc2c1	> 40.7 µM	> 40.7 µM	
CCCCCCOCC(=O)O	> 200 µM	> 200 µM	
CC1(c2cccc(N)c2)C2C(=O)NC(=O)C1C(=O)NC2=O (stereo not drawn)	> 331 µM	56.2 µM	
S=c1sc2c(Cl)nc(Cl)nc2n1-c1ccccc1	> 31.6 µM	> 31.6 µM	
Cc1ccc(NC(=O)c2c(N)c(C#N)c3n2CCC3)cc1	> 200 µM	> 200 µM	
Cn1cnc([N+](=O)[O-])c1Sc1n[nH]c(-c2ccc(Cl)cc2)n1	> 107 µM	6.76 µM	
CN(C)CC1CCCC(CN(C)C)C1OC(=O)c1ccccc1 (stereo not drawn)			inactive
Cc1cc(S(=O)(=O)Nc2cc(N)[nH]n2)c(SCc2nc(N)nc(N(C)C)n2)cc1Cl	> 200 µM	> 200 µM	
Cc1cc(C(C)(C)C)oc(=O)c1NC(=O)c1ccccc1	> 200 µM	155 µM	

Source: PubChem BioAssay AID179 (DTP/NCI, 2004)
